For series [1], the system named is RG2. In words: Synergistic cytotoxicity against rat RG2 cells assessed as combination index at 112.4 uM after 48 hrs in presence of 103 uM TMZ by MTT assay. It is filed as functional. (In general: Tetrazolium assays rely on reduction of a dye to a coloured formazan, in cell work by metabolically active cells.)
For series [2], the system named is DBTRG-05MG. Description: Induction of DNA damage in human DBTRG-05MG cells assessed as ATM phosphorylation at ser1981 residues at 112.4 uM after 48 hrs in presence of TMZ by Western blot analysis (reference value: 1). It is filed as functional.
Series [3] concerns RG2. Description: Induction of cell cycle arrest in rat RG2 cells assessed as accumulation at G0/G1 phase at 112.4 uM after 12 hrs in presence of TMZ by propidium iodide staining based flow cytometric analysis (reference value: 57.81 +/- 1.9%). It is filed as functional. (In general: Flow cytometry measures light scatter and fluorescence of single cells or particles in a stream.)

For series [4], the system named is DBTRG-05MG. In words: Induction of cell cycle arrest in human DBTRG-05MG cells assessed as accumulation at G2/M phase at 112.4 uM after 24 hrs in presence of TMZ by propidium iodide staining based flow cytometric analysis (reference value: 30.08 +/- 0.1%). Type of series: functional.
Series [5] is described as follows: Synergistic cytotoxicity against rat CTX TNA2 cells assessed as combination index at 134.9 uM after 48 hrs in presence of 515.1 uM TMZ by MTT assay. Type of series: cell-based. Conditions: ctx tna2, 48 h.
Series [6] relates to DBTRG-05MG. In words: Synergistic cytotoxicity against human DBTRG-05MG cells assessed as synergistic effect index at 112.4 uM after 48 hrs in presence of 206 uM TMZ by MTT assay. Type of series: functional.
The subject of series [7] is DBTRG-05MG. Description: Synergistic cytotoxicity against human DBTRG-05MG cells assessed as synergistic effect index at 134.9 uM after 48 hrs in presence of 515.1 uM TMZ by MTT assay. Type of series: functional.
Series [8] deals with RG2. Description: Synergistic cytotoxicity against rat RG2 cells assessed as combination index at 134.9 uM after 48 hrs in presence of 103 uM TMZ by MTT assay. Type of series: functional.
The subject of series [9] is RG2. In words: Synergistic cytotoxicity against rat RG2 cells assessed as synergistic effect index at 112.4 uM after 48 hrs in presence of 103 uM TMZ by MTT assay. Type of series: functional.
In series [10] the test system is DBTRG-05MG. In words: Induction of cell cycle arrest in human DBTRG-05MG cells assessed as accumulation at S phase at 112.4 uM after 24 hrs in presence of TMZ by propidium iodide staining based flow cytometric analysis (reference value: 22.76 +/- 1.56%). Type of series: functional.
Series [11] in a line: Inhibition of TMZ-induced drug resistance in rat RG2 cells assessed as CD133 expression at 112.4 uM after 48 hrs by Western blot analysis (reference value: 2.4). Type of series: functional.
The subject of series [12] is RG2. Description: Induction of apoptosis in rat RG2 cells assessed as Bax expression at 112.4 uM after 48 hrs by Western blot analysis (reference value: 1). Type of series: functional.
The target of series [13] is T1, Serine/threonine-protein kinase AKT (Homo sapiens) (UniProt P31751+Q9Y243+P31749). In words: Inhibition of AKT phosphorylation at S473 residues in human DBTRG-05MG cells at 112.4uM after 48 hrs by Western blot analysis. Type of series: cell-based. A general note: Immunoblotting shows a protein as a band on a membrane.
For series [14], the system named is RG2. In words: Induction of cell cycle arrest in rat RG2 cells assessed as accumulation at G0/G1 phase at 112.4 uM after 12 hrs by propidium iodide staining based flow cytometric analysis (reference value: 57.81 +/- 1.9%). It is filed as functional.
Series [15] concerns RG2. Description: Induction of cell cycle arrest in rat RG2 cells assessed as accumulation at G2/M phase at 112.4 uM after 6 hrs by propidium iodide staining based flow cytometric analysis (reference value: 20.04 +/- 0.55%). It is filed as functional.
In series [16] the test system is DBTRG-05MG. Description: Inhibition of JNK phosphorylation at Thr183/Tyr185 residues in human DBTRG-05MG cells at 112.4uM after 48 hrs by Western blot analysis (reference value: 1). It is filed as cell-based.
Series [17] has as its system RG2. Description: Synergistic cytotoxicity against rat RG2 cells assessed as combination index at 112.4 uM after 48 hrs in presence of 309 uM TMZ by MTT assay. It is filed as functional.
Series [18] deals with RG2. In words: Inhibition of AKT phosphorylation at S473 residues in rat RG2 cells at 112.4uM after 48 hrs by Western blot analysis. It is filed as cell-based.
Series [19] deals with RG2. Description: Induction of DNA damage in rat RG2 cells assessed as H2A.X phosphorylation at ser139 at 112.4 uM after 48 hrs by Western blot analysis (reference value: 1). Type of series: functional.
The test system of series [20] is RG2. Description: Induction of apoptosis in rat RG2 cells assessed as cleaved caspace-9 expression at 112.4 uM after 48 hrs in presence of TMZ by Western blot analysis (reference value: 1). It is filed as functional.
The subject of series [21] is RG2. Description: Synergistic cytotoxicity against rat RG2 cells assessed as combination index at 134.9 uM after 48 hrs in presence of 206 uM TMZ by MTT assay. Type of series: functional.
The subject of series [22] is DBTRG-05MG. Description: Induction of cell cycle arrest in human DBTRG-05MG cells assessed as CyclinA expression at 112.4 uM after 48 hrs in presence of TMZ by Western blot analysis (reference value: 1). Type of series: functional.
For series [23], the system named is DBTRG-05MG. Description: Induction of cell cycle arrest in human DBTRG-05MG cells assessed as CyclinB1 expression at 112.4 uM after 48 hrs by Western blot analysis (reference value: 1). Type of series: functional.
Series [24] deals with RG2. Description: Synergistic cytotoxicity against rat RG2 cells assessed as synergistic effect index at 134.9 uM after 48 hrs in presence of 515.1 uM TMZ by MTT assay. Type of series: functional.
In series [25] the test system is DBTRG-05MG. Description: Induction of apoptosis in human DBTRG-05MG cells assessed as increase in chromatin condensation at 206 uM after 48 hrs by TUNEL assay. Type of series: functional, cell-based.
In series [26] the test system is DBTRG-05MG. In words: Induction of apoptosis in human DBTRG-05MG cells assessed as phosphorylated PARP expression at 206 uM after 48 hrs by Western blot analysis (reference value: 1). Type of series: functional.
For series [27], the target named is T1, Serine/threonine-protein kinase AKT (Homo sapiens). In words: Inhibition of AKT phosphorylation at S473 residues in human DBTRG-05MG cells at 206 uM after 48 hrs by Western blot analysis. Type of series: cell-based.
Series [28] concerns DBTRG-05MG. In words: Induction of cell cycle arrest in human DBTRG-05MG cells assessed as CyclinB1 expression at 206 uM after 48 hrs by Western blot analysis (reference value: 1). It is filed as functional.
For series [29], the system named is DBTRG-05MG. In words: Induction of cell cycle arrest in human DBTRG-05MG cells assessed as accumulation at G0/G1 phase at 206 uM after 24 hrs by propidium iodide staining based flow cytometric analysis (reference value: 47.16 +/- 1.55%). It is filed as functional.
The subject of series [30] is DBTRG-05MG. Description: Induction of cell cycle arrest in human DBTRG-05MG cells assessed as accumulation at G0/G1 phase at 206 uM after 6 hrs by propidium iodide staining based flow cytometric analysis (reference value: 47.16 +/- 1.55%). Type of series: functional.
Series [31] is described as follows: Effect on AKT expression in rat RG2 cells at 206 uM after 48 hrs by Western blot analysis (reference value: 1). Type of series: functional.
The subject of series [32] is RG2. In words: Induction of apoptosis in rat RG2 cells assessed as increase in apoptotic body formation at 206 uM after 48 hrs by TUNEL assay. Type of series: functional, cell-based.
Series [33] has as its system DBTRG-05MG. In words: Induction of apoptosis in human DBTRG-05MG cells assessed as cleaved caspace-9 expression at 206 uM after 48 hrs by Western blot analysis (reference value: 1). It is filed as functional.
The nature of series [34]: Effect on ERK expression in rat RG2 cells at 206 uM after 48 hrs by Western blot analysis (reference value: 1). It is filed as functional.

Each structure is given as a SMILES string. Active and inactive are the calls of the source. No cut-off for these calls is given here.

T1 sequence (P31749 whole entry, looked up): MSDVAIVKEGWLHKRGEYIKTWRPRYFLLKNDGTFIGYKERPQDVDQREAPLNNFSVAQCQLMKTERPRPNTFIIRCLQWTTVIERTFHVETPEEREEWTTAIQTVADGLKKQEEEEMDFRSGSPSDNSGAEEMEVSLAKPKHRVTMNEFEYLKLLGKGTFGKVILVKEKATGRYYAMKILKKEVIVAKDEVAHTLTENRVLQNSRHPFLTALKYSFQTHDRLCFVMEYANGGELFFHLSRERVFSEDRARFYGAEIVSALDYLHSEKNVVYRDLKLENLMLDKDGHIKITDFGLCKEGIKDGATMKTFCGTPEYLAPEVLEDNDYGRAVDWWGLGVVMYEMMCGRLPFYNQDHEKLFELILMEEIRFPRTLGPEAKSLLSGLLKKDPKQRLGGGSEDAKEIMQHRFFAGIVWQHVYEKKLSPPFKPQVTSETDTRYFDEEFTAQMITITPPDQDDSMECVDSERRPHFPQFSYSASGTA
T1 sequence (P31751 whole entry, looked up): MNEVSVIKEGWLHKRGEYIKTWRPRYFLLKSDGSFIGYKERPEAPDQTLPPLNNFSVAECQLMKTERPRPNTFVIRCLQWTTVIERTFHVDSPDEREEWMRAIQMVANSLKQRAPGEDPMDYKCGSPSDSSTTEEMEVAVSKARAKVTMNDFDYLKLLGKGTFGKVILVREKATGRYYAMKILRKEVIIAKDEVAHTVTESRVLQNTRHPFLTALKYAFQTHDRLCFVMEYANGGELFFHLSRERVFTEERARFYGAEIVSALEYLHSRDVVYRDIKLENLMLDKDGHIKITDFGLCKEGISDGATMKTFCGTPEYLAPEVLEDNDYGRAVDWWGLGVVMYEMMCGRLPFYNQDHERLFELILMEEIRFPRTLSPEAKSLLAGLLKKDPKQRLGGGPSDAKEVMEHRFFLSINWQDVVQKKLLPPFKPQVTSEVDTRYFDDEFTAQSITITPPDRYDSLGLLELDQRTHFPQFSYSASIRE
T1 sequence (Q9Y243 whole entry, looked up): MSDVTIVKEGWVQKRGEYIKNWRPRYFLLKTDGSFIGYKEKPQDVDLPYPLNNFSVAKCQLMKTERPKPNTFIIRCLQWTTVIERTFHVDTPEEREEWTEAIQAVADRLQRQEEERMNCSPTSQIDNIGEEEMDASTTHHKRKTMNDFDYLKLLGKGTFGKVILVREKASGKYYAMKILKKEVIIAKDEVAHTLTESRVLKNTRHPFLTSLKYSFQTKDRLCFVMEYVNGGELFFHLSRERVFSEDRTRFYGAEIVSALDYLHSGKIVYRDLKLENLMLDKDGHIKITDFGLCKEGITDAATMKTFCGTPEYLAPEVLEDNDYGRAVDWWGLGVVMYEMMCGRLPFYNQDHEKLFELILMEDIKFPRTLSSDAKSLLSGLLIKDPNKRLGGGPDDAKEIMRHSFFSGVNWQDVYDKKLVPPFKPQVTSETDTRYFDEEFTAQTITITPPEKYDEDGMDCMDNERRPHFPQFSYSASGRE

With `C[C@@H]1CC[C@H]2C(C)(C)[C@H]3C[C@@]12CC[C@@]3(C)O` [CEDROL], the CI in the series on RG2 [1] was determined as 0.8; in series [5], 0.88; in the series on RG2 [8], 0.83; in the series on RG2 [17], 0.9; with RG2 [21] it was 0.84. Also, the “fold change (FC)” value in the series with DBTRG-05MG [2] came to 2.9; in [11], 1.3; in the series on RG2 [12] it was 1.1; in series [13], 0.8; with DBTRG-05MG [16] it was 1; in the series with RG2 [18], 0.8. For the same molecule, the “fold change (FC)” value was determined as 1 in the series with RG2 [19], 1.8 with RG2 [20], 1.6 with DBTRG-05MG [22] and 0.5 in the series on DBTRG-05MG [23]. For the same molecule, the Activity in the series with RG2 [3] was determined as 61.92%; with DBTRG-05MG [4], 36.89%; with DBTRG-05MG [10] it was 14.17%; in the series with RG2 [14], 64.98%; in the series with RG2 [15], 21.06%. Besides, the Activity_index in the series on DBTRG-05MG [6] was 0.88; in the series with DBTRG-05MG [7], 0.89; in the series with RG2 [9] it was 0.83; with RG2 [24], 0.89.

Turning to `Cn1nnc2c(C(N)=O)ncn2c1=O` [TEMOZOLOMIDE], the outcome in the series on DBTRG-05MG [25] and with RG2 [32] was Active. For the same molecule, the “fold change (FC)” value was found to be 0.4 with DBTRG-05MG [26]; 0.7 in series [27]; 1.4 in the series with DBTRG-05MG [28]; 0.6 in series [31]; 1.8 with DBTRG-05MG [33]; 1.1 in series [34]. The values for the Activity in the series on DBTRG-05MG [29] and with DBTRG-05MG [30] were 31.03% and 40.56%, respectively.

The record behind these values is ChEMBL document CHEMBL4699511, “Cedrol, a Sesquiterpene Alcohol, Enhances the Anticancer Efficacy of Temozolomide in Attenuating Drug Resistance via Regulation of the DNA Damage Response and MGMT Expression” (J Nat Prod, 2020).
